Key:
total HDAC enzyme = experiment: In vitro inhibition of total HDAC enzyme activity (BIOMOL HDAC Fluorimetric Assay/Drug Discovery Kit, HeLa extract); type: biochemical
Description: Measurement of In Vitro Inhibition of Total HDAC Enzyme Activity:
The in vitro inhibition of total HDAC enzyme was determined by HDAC Fluorimetric Assay/Drug Discovery Kit (BIOMOL) according to manufacture's instruction. • 1. Add Assay buffer, diluted trichostatin A or test inhibitor to appropriate wells of the microtiter plate. Following table lists examples of various assay types and the additions required for each test.
• 2. Add diluted HeLa extract or other HDAC sample to all wells except those that are to be “No Enzyme Controls” (Blank). • 3. Allow diluted Fluor de LYS™ Substrate and the samples in the microtiter plate to equilibrate to assay temperature (25° C.). • 4. Initiate HDAC reactions by adding diluted substrate (25 μl) to each well and mixing thoroughly. • 5. Allow HDAC reactions to proceed for desired length of time and then stop them by addition of Fluor de Lys™ Developer (50 μl). Incubate plate at room temperature (25° C.) for 10-15 min. • 6. Read samples in a microtiter-plate reading fluorimeter capable of excitation at a wavelength in the range 350-380 nm and detection of emitted light in the range 440-460 nm. Measurement of In Vivo Inhibition of HDAC Subtype Activity: […]

HDAC3 = target: T1, HDAC3 (Homo sapiens, UniProt O15379); experiment: gdf11 reporter gene assay in HeLa cells; type: cell-based; conditions: HeLa, 24 h, read-out: % of SAHA Response for HDAC3 at 10 μM (gdf11 reporter gene)
T1 construct: endogenous in cells; host or cells: HeLa
Description: (§1) HDAC subtype selectivity inhibition assay of tested compounds was carried out by several reporter gene assays experiments. Briefly, HeLa cells were seeded in 96-well plates the day before transfection to give a confluence of 50-80%. Cells were transfected with one of reporter gene plasmids containing a promoter sequences or response elements upstream of a luciferase gene construct using FuGene6 transfection reagent according to the manufacturer's instructions (Roche). The promoter or response elements including p21-promoter, gdf11-promoter, serum response element (SRE), MEF-binding element were fused upstream to the luciferase gene reporter construct. For normalizing the transfection efficiency, a GFP expression plasmid was cotransfected. Cells were allowed to express protein for 24 hours followed by addition of individual compounds or the vehicle (DMSO). 24 hours later the cells were harvested, and the luciferase assays were performed using the luciferase assay kit according to the manufacturer's instructions (Promega). To normalize the data from the luciferase assays, β-galactosidase activity from transfected cells was measured using a kit (Promega) as instructed by the manufacturer.

HDAC4/5 = experiment: MEF2 reporter gene assay in HeLa cells; type: cell-based; conditions: relative to SAHA, 24 hours
Description: as §1

HDAC7 = target: T2, HDAC7 (Homo sapiens, UniProt Q8WUI4); experiment: Nur77 reporter gene assay in HeLa cells; type: cell-based; conditions: HeLa, 24 h, read-out: % of SAHA Response for HDAC7 at 10 μM (Nur77 reporter gene)
T2 construct: endogenous in cells; host or cells: HeLa
T2 sequence (Q8WUI4 1-952): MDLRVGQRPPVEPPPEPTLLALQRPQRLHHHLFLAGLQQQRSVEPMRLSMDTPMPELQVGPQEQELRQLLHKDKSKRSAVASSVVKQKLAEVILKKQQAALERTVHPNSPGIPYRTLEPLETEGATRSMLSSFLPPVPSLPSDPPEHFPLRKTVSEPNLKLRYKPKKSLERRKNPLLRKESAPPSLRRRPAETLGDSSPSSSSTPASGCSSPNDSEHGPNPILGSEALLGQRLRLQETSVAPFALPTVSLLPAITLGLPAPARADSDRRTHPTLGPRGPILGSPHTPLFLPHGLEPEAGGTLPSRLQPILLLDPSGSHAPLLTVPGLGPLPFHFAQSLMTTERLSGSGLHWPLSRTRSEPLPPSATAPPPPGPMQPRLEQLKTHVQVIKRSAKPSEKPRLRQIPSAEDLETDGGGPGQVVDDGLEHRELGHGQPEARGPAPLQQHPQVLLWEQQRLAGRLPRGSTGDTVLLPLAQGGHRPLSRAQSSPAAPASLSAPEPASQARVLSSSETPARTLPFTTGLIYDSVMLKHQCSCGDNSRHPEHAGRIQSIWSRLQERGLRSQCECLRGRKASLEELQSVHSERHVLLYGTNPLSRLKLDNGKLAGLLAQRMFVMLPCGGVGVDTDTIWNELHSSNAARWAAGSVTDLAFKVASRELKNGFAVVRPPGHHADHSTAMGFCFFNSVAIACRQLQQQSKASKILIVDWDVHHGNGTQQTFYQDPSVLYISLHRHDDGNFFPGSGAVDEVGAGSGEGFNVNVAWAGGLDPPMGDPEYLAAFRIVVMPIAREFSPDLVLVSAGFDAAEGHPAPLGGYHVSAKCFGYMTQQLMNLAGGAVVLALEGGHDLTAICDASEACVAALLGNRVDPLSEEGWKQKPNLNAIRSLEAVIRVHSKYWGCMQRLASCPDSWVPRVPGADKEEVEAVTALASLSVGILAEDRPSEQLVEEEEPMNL
Description: as §1

Hut-78 = experiment: Cell proliferation (MTS), Hut-78; type: cell-based; conditions: Homo sapiens, HuT78, 72 hours
Description: (§2) Measurement of In Vivo Cell Proliferation:
(§3) Tumor cells were trypsinized and plated into 96-well plates at 3,000 per well and incubated in complete medium with 10% FBS for 24 hours. Compounds were added over a final concentration range of 100 μmol/L to 100 nmol/L in 0.1% DMSO and incubated for 72 hours in complete medium. The effects on proliferation were determined by addition of MTS reagent (Promega) according to the instruction, incubation for 2 hours at 37° C. in CO2 incubator, and record the absorbance at 490 nm using an ELISA plate reader.

HL60 = experiment: Cell proliferation (MTS), HL60; type: cell-based; conditions: Homo sapiens, HL-60, 72 hours
Description: as §2, §3

HeLa = experiment: Cell proliferation (MTS), HeLa; type: cell-based; conditions: Homo sapiens, 72 hours
Description: as §2, §3

A549 = experiment: Cell proliferation (MTS), A549; type: cell-based; conditions: Homo sapiens, 72 hours
Description: as §2, §3

T1 sequence (O15379 whole entry): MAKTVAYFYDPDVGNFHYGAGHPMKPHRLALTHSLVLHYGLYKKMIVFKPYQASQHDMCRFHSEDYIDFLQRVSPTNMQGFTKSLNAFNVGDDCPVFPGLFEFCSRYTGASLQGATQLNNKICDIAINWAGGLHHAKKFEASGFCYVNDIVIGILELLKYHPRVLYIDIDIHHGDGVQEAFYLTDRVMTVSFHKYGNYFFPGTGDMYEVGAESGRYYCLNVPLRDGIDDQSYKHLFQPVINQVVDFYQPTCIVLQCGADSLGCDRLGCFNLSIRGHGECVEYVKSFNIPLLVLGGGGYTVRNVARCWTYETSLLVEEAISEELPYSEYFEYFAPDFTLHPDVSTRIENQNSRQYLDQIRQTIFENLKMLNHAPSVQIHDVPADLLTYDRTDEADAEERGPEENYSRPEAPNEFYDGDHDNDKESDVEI
T1 sequence (Q9Y618 whole entry partner): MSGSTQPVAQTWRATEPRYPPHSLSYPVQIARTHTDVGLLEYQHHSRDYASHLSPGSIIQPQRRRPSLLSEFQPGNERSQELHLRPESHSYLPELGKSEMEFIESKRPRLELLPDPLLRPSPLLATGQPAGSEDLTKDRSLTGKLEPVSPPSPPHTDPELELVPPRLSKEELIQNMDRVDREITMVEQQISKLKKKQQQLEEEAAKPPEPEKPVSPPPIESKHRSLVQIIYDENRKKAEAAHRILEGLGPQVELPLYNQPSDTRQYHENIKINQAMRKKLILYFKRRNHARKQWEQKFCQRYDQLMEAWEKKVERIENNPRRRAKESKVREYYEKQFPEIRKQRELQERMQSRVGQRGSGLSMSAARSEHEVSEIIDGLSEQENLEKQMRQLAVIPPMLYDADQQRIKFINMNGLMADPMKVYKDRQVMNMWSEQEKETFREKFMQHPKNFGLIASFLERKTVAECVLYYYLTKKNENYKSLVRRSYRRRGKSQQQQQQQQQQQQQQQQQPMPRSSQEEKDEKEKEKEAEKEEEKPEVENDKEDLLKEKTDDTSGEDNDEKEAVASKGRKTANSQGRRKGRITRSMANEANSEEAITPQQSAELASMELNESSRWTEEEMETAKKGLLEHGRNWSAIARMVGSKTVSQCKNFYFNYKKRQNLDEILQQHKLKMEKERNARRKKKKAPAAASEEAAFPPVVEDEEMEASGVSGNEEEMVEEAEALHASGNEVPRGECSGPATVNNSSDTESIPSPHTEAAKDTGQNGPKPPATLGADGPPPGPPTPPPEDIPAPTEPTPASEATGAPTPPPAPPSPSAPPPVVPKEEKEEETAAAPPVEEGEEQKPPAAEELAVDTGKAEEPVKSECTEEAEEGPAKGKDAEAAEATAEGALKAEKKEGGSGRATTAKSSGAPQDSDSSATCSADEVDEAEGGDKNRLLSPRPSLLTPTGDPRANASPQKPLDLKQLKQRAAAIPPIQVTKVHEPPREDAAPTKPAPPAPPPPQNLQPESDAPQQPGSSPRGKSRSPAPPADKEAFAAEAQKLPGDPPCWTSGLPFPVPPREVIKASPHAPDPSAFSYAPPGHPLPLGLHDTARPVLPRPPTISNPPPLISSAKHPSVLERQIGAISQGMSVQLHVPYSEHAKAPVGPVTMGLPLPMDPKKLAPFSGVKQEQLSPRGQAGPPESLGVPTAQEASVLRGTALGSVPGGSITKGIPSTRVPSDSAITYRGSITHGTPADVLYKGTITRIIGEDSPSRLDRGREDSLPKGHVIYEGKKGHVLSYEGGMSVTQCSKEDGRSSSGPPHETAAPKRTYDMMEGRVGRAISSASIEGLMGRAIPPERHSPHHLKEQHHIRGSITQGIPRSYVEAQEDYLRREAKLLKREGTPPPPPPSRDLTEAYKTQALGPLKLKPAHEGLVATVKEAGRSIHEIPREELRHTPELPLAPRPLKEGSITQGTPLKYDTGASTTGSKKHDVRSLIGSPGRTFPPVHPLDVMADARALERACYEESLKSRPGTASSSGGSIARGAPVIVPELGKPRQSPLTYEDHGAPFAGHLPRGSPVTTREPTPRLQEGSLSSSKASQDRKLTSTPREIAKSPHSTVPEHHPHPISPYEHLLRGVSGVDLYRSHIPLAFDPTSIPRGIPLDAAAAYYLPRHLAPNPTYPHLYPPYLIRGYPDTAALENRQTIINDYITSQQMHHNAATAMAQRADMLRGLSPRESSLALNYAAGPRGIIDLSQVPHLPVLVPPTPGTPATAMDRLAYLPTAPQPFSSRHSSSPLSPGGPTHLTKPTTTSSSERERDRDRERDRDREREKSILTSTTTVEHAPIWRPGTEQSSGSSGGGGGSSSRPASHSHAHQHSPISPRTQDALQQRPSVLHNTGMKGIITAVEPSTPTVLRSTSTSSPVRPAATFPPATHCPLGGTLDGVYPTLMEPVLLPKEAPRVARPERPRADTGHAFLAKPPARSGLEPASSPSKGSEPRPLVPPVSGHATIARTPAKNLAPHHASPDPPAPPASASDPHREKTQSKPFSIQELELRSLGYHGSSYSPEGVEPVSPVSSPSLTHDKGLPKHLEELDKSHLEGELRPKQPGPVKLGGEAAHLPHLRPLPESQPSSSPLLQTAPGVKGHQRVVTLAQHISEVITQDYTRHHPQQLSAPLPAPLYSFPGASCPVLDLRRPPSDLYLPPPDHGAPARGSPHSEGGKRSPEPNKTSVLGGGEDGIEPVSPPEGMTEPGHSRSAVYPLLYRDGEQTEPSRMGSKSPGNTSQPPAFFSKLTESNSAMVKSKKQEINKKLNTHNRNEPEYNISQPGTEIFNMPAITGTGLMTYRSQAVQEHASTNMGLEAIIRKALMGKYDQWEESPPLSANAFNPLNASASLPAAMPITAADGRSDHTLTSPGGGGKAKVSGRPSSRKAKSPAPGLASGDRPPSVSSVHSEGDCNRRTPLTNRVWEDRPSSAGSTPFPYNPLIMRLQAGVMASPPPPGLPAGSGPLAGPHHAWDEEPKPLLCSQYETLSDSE

% of Inhibition on total HDAC enzyme at 30 μM (total HDAC enzyme) | activation at 10 µM (HDAC3) | activation at 10 µM (HDAC7) | GI50 (HL60) | GI50 (HeLa) | GI50 (A549) | Structure (SMILES) | % of SAHA Response for HDAC4/5 at 10 μM (MEF2 reporter gene) (HDAC4/5) | GI50 (Hut-78)
50% | 26% | 38% | 2.29 µM | 22.9 µM | 18.2 µM | Nc1cc(F)ccc1NC(=O)CCCCCNC(=O)C=C1c2ccccc2-c2ccccc21 [Example 12, 6-(2-(9H-fluoren-9-ylidene)acetamido)-N-(2-amino-4-fluorophenyl)hexanamide] | 101% | 3.89 µM
50% | 66% | 66% | 1.35 µM | 8.32 µM | 4.9 µM | Nc1ccccc1NC(=O)CCCCCNC(=O)C=C1c2ccccc2-c2ccccc21 [Example 13, 6-(2-(9H-fluoren-9-ylidene)acetamido)-N-(2-aminophenyl)hexanamide] | 118% | 1.35 µM

— patent US8178577B2, “Tricyclic derivatives as potent and selective histone deacetylase inhibitors” (Shenzhen Chipscreen Biosciences Ltd., priority 2008, dated 2012)
